The source of these data is patent US11253535B2, “Carboline derivatives or phosphorous derivatives for the treatment of muscular myopathies and traumatic injuries to muscles” (Centre National de la Recherche Scientifique (C.N.R.S), priority 2015, dated 2022).

Test [1] has as its system DMD myotubes. As to the kind of experiment: Spontaneous calcium activity (calcium waves) in DMD patient myotubes, Fluo-4 AM, confocal microscopy. It counts as cell-based, human. To be noted: for reduction in the amplitude of the calcium waves (oscillations): 100 μM; for reduction in the number of myotubes with spontaneous calcium activity: DMD myotubes preincubated, 100 μM (FIG. 5D, 8D). An excerpt:
(A) Characterization of spontaneous calcium waves in DMD myotubes. Healthy myotubes mostly show low activity (13% of myotubes), while 49% of untreated DMD myotubes show significant spontaneous calcium activity. The amplitude of calcium oscillations in untreated DMD myotubes is increased by 60% compared with healthy myotubes. (B) Examples of trace recordings of a representative region of interest in myotubes and DMDs. (C) Amplitude of spontaneous calcium oscillations in DMD myotube cultures in the presence of modulators of the CD38 enzyme pathway. […] Similarly, 8-Bromo-cADPR (cADPR antagonist, 100 μM, n=48) and NED-19 (NAADP antagonist, 100 μM, n=167) reduce by 40% the amplitude of calcium oscillations in DMD myotubes. […] The t-test was used with a significance level set at 0.05, with a *P<0.05; **P<0.01, ***P<0.001, n=cell number.
(A) DMD myotubes loaded with a calcium probe (Fluo 4). Examples of trace recordings of a representative region of interest in control DMD myotubes (B) and treated for 30 min with NAADP (100 μM) (C). […] The chi square (proportion of active cells) and t-test (mean peak amplitude) were used with a significance level set at 0.05, with a *P<0.05 ***P<0.001.
In parallel with mouse cardiomyocyte studies, two lines of human skeletal myotubes (a patient cell line with DMD and a control line) were used. Human myotubes are particularly suitable for evaluating a pharmacological tool from a therapy perspective. The inventors first tested the CZ-27, the NED-19 antagonist of NAADP (the most efficient messenger produced by CD38), and 8-bromo-cADP-ribose (a cADP-ribose antagonist produced by CD38. The cells were loaded with Fluo-4 AM and recorded by confocal microscopy.
The amplitude of the calcium waves was reduced by 40% (see FIG. 5A) compared to that of the untreated DMD myotubes. […] A 40% reduction in the amplitude of the calcium waves is also observed when the cells are treated with 100 μM of 8-Bromo-cADPR or NED-19 (see FIG. 5C). When cultures of DMD myotubes were preincubated with NED-19, the number of myotubes with spontaneous calcium activity was reduced in a dose-dependent manner for concentrations of 2 to 300 μM (60% to 100 μM reduction) (see FIG. 5D). In addition, when cultures of DMD myotubes were preincubated with NAADP at 100 μM, the number of myotubes with spontaneous calcium activity was reduced (75% reduction with 100 μM NAADP) (see FIG. 8D).

Test [2] concerns mdx mouse cardiomyocytes. As to the kind of experiment: Spontaneous calcium activity (spikes and calcium waves) of mdx mouse cardiomyocytes. It counts as cell-based. An excerpt: FIG. 4: Frequency of spontaneous spikes and calcium waves in WT, mdx and mdx/CD38^−/− mouse cardiomyocytes. 1-way-ANOVA test with a Bonferroni correction. Significance level set at 0.05, with a *P<0.05; **P<0.01, ***P<0.001. (A) The spontaneous calcium activity of cardiomyocytes (calcium spikes and waves) of the mdx/CD38^−/− mouse is reduced by 80% compared to the values of mdx mice. (B) The application of the CD38 CZ-27 antagonist to mdx mouse cardiomyocytes reduces the frequency of spikes by about 70%.
Evaluation of the Spontaneous Calcium Activity of Mouse Cardiomyocytes:
In the mdx cardiomyocyte, it was shown that the calcium reserves of the sarcoplasmic reticulum were reduced, probably due to Ca^2+ leakage through RyRs that are abnormally sensitized.
In order to study the impact of the absence of CD38 on these parameters, the different parameters of spontaneous spike activity and calcium waves were studied. […] The increased frequency of these spontaneous calcium events may lead to arrhythmias (when they spread to the whole heart tissue) as well as to a long-term cardiac hypertrophy associated with a change in the Ca^2+-dependent gene expression.
The protective effect of the CD38 deletion in mice was then observed by comparing cardiomyocytes of the double-mutant model with cardiomyocytes of mdx mice. The spontaneous calcium activity of mdx/CD38^−/− cardiomyocytes is very small compared to mdx (spikes and calcium waves, see FIG. 4A). […] CD38 deletion in mdx/CD38^−/− favor its protective role in DMD, with the reversal of many deleterious parameters in mdx mice (spontaneous calcium spikes and waves, sensitization of RyRs).

[3] abbreviates: DMD myotubes, vs untreated DMD myotubes (FIG. 5C).

For `N=c1c2nc(Br)n3c2ncn1[C@H]1O[C@H](COP(=O)(O)OP(=O)(O)OC[C@H]2O[C@@H]3C(O)C2O)C(O)C1O` (some centres unmarked) [8-Bromo-cADPR, 8-bromo adenosine diphosphate cyclic ribose], the “reduction in the amplitude of the calcium waves (oscillations)” value in test [1] (setting [3]) is on record as 40%.
With `CCCCOP(=O)(O)OC[C@@H]1O[C@H]([n+]2cccc(C(N)=O)c2)C(F)C1O` (stereo partly drawn) [CZ-27, 2′-deoxy-2′-fluoro-β-nicotinamide arabinofuranoside-5′-(n-butyl) phosphate], the “frequency of spontaneous calcium spikes” value in test [2] (mdx mouse cardiomyocytes (FIG. 4B)) was “reduction in spikes frequency”. In test [2] (mdx mouse cardiomyocytes, application of the compound (FIG. 4B)), the “reduction of the frequency of spontaneous calcium spikes” value is on record as “about 70%”. Further, the “amplitude of spontaneous calcium oscillations” value in test [1] (DMD myotubes (FIG. 5C)) is listed as “strongly reduces”. The “reduction in the amplitude of the calcium waves, dose-dependent” value in test [1] (DMD myotubes preincubated with 10, 50 and 100 μM, vs untreated DMD myotubes (FIG. 5C)) is “up to 80%”.
Regarding `Nc1ncnc2c1ncn2[C@@H]1O[C@H](COP(=O)(O)OP(=O)(O)OC[C@H]2O[C@@H]([n+]3cccc(C(=O)[O-])c3)[C@H](O)[C@@H]2O)[C@@H](O)[C@H]1OP(=O)(O)O` [NAADP, nicotinic acid adenine dinucleotide phosphate], the “reduction in the number of myotubes with spontaneous calcium activity” value in test [1] came to 75%. In addition, the “percentage of cells exhibiting spontaneous calcium activity” value in test [1] (DMD myotubes treated 30 min, 100 μM (FIG. 8D)) is “greatly reduced”. Also, in test [1] (DMD myotubes treated 30 min, 100 μM (FIG. 8E)), the “amplitude of the spontaneous calcium oscillations” value is reported as “strongly reduced”.
For `COc1ccc([C@H]2N[C@H](C(=O)O)Cc3c2[nH]c2ccccc32)cc1CN1CCN(c2ccccc2F)CC1` [NED-19, (1R, 3S)-1-[3-[[4-(2-fluorophenyl)piperazin-1-yl]methyl]-4-methoxyphenyl]-2,3,4,9-tetrahydro-1H-pyrido[3,4-b]indole-3-carboxylic acid], in test [2] (mdx mouse cardiomyocytes (FIG. 4C)), the “reduction in spontaneous calcium wave activity” value was “about 90%”. Besides, the “number of cardiomyocytes exhibiting spontaneous calcium activity” value in test [2] (mdx mouse cardiomyocytes incubated with compound (not shown)) is recorded as “significant reduction”. For the same molecule, the “frequency of spontaneous calcium waves” value in test [2] (mdx mouse cardiomyocytes, rare cases of spontaneous activity in presence of compound (FIG. 4C)) is “greatly reduced”. In test [1], the “reduction in the number of myotubes with spontaneous calcium activity” value was 60%. Moreover, in test [1] (setting [3]), the “reduction in the amplitude of the calcium waves (oscillations)” value was 40%. Moreover, the “percentage of cells with spontaneous calcium activity” value in test [1] (DMD myotubes, 2-300 μM (FIG. 5D)) is “strongly reduced dose-dependently”.
